In patent publication US20240342138A1, “MICROTUBULE TARGETING AGENTS” (BPGbio, Inc., priority 2023, published 2024):

What was measured:
Type in all cases: cell-based
[1] = system: colchicine binding site of tubulin; assay: EBI labeling assay in MIA PaCa2 cells (Western blot); conditions: 2 hours compound, then 2 hours 100 μM EBI, FIG. 2, FIG. 3
Method: MIA PaCa2 cells were cultured in DMEM+10% FBS and 1% P/S. Cells were plated at 1.5-2×10^6 in 60 mm dishes. For drug treatments, cells were treated the day after plating with 0.1% DMSO or the compounds tested at the concentrations indicated in FIG. 2 for 2 hours.
• Cells were treated with compounds for 2 hours at 37°, 5% CO2 (in the cell culture incubator), and then for an additional 2 hours with 100 μM EBI (with compounds present) under the same conditions. • Cells were then harvested with Trypsin and pelleted at 500 g for 3 minutes. • Cells were rinsed in 1 mL PBS and transferred to clean epi tubes. […] BCA assay plates were incubated for 15 minutes in the 37-degree incubator in the outer molecular lab. • After protein normalization (including addition of reducing Laemmli buffer from a 6× stock) samples were boiled at 95 degrees for 3 minutes and frozen for subsequent Western Blotting.
Significance in difference of treated MIA PaCa-2 cells to 0.1% DMSO treated cells were tested by Student t test (* p<0.05; ** p<0.01; *** p<0.001).

DU145 cells = assay: In vitro potency, ATPlite 1Step (NTRC Oncolines); conditions: Homo sapiens, DU-145
Method: FIG. 12A-12E show the efficacy of Compound lin a prostate cancer xenograft model (DU145). A) In vitro potency of Compound 1 in DU145 cells as evaluated by ATPlite 1Step™ Perkin Elmer (performed by NTRC Oncolines). B) DU145 cells were implanted subcutaneously in nude mice and tumors were allowed to grow to a volume of 210 mm^3 followed by randomization of animals into three (3) groups (vehicle control, 75 mg/kg, 150 mg/kg Compound 1) with 12 animals per group. A Compound 1 solid dispersion was prepared prior to each dosing and administered by oral gavage two times a day (BID). Mean tumor volume of each group over time and the growth of tumor in each individual animal was graphed. For each individual animal of […] group TGI (%) was calculated based on the tumor growth inhibition of individual tumor at each given day of the study compared to the average of the group for that given day of the study. P-values were calculated using two-tailed distribution and two-sample equal variance (homoscedastic) for each group treated with Compound 1 for each given day of the study in reference to vehicle control. NS p>0.05; *p≤0.05; **p≤0.01; ***p p≤0.001; **** p≤0.0001. […] The level of two biomarkers, pHH3 and CCNB1 in each tissue was measured and graphed as the Min-to-Max plot and scatter plot of the level of each biomarker. […]

C6 cells = assay: In vitro potency in glioblastoma cells, Realtime-Glo assay; conditions: Rattus norvegicus, FIG. 14A, read-out: In vitro potency (anti-cancer activity)
Excerpt: (§1) FIG. 14A-14E show the efficacy of Compound 1 in glioblastoma cell lines in vitro and in a glioblastoma rat model (C6). A) In vitro potency of Compound 1 in four different glioblastoma cell lines as evaluated by Realtime-Glo™ assay (C6, and U87 cells) or ATPlite 1Step™ Perkin Elmer (performed by NTRC Oncolines; T98G and A-172 cells). B) Study design overview: C6 rat glioma cells (3×10^5) were implanted into the right entorhinal cortex/subiculum region of male Sprague Dawley rats and tumor burden was assessed 14 days post inoculation using MRI and animals randomized into […] (4) groups (vehicle control, 5 mg/kg, 10 mg/kg, and 20 mg/kg Compound 1) with 4 animals per group. […] C) Body weights were measured every two days. […]
(§2) Glioblastoma (GBM) is the most common and highly malignant form of primary brain tumor with a poor prognosis despite advances in treatments. […] Accordingly, the in vitro potency of Compound 1 was examined in four different glioblastoma cell lines as evaluated by Realtime-Glo™ assay (C6, and U87 cells) or ATPlite 1Step™ Perkin Elmer (performed by NTRC Oncolines; T98G and A-172 cells). […] Therefore, the in vivo tumor activity of Compound 1 was next assessed in Sprague Dawley rats implanted with C6 rat glioma cells into the right entorhinal cortex/subiculum region (AP: −7 mm; ML: 4.5 mm, DV: 5 mm). […]

U87 cells = assay: as above; conditions: Homo sapiens, U-87 MG, FIG. 14A, read-out: In vitro potency (anti-cancer activity)
Excerpt: as §1, §2

`COc1ccccc1-c1nc(CNC(=O)c2ccccc2OC(F)F)n[nH]1` [Compound 1, 2-(difluoromethoxy)-N-[[5-(2-methoxyphenyl)-1H-1,2,4-triazol-3-yl]methyl]benzamide] was tested, and the “Formation of EBI:β-tubulin adducts” value [1] was “inhibited the formation of EBI (N,N′-ethylene-bis(iodoacetamide)):β-tubulin adducts”, the IC50 (DU145 cells; DU145) was 77 nM and the Emax (DU145 cells; DU145, in vitro, read-out: Maximum effect (%)) was 91%. For the same compound, the IC50 (C6 cells) was 42 nM and the IC50 (U87 cells) was 89 nM.
